Data from patent publication US20260151413A1, “ANTICANCER DRUG CONJUGATES” (Ariel Scientific Innovations Ltd., priority 2022, published 2026).

Columns and labels:
MHH-CALL4 = assay: WST-1 proliferation assay, MHH-CALL4; type: cell-based, human; settings: WST-1, 48 hours of treatment
Protocol: (§1) Albert Pinhasov (Ariel University, Ariel, Israel). […] Granta cells were kindly provided by Prof.
(§2) Table 3 [resents the calculated IC50 values (μM) for each chimera in different hematological malignancies cell-lines. The proliferation rate was measured by WST-1 assay after 48 hours of treatment. The result shown for each concentration point represents the […]

Rec-1 = assay: WST-1 proliferation assay, Rec-1; type: cell-based, human; settings: WST-1, 48 hours of treatment
Protocol: as §1, §2

OCI-AML3 = assay: WST-1 proliferation assay, OCI-AML3; type: cell-based; settings: WST-1, 48 hours of treatment
Protocol: as §1, §2

MINO = assay: WST-1 proliferation assay, MINO; type: cell-based, human; settings: WST-1, 48 hours of treatment
Protocol: as §1, §2

MUTZ5 = assay: WST-1 proliferation assay, MUTZ5; type: cell-based, human; settings: WST-1, 48 hours of treatment
Protocol: as §1, §2

KG-1a = assay: WST-1 proliferation assay, KG-1a; type: cell-based; settings: WST-1, 48 hours of treatment
Protocol: as §1, §2

JEKO-1 = assay: WST-1 proliferation assay, JEKO-1; type: cell-based, human; settings: WST-1, 48 hours of treatment
Protocol: as §1, §2

HEL = assay: WST-1 proliferation assay, HEL; type: cell-based, human; settings: WST-1, 48 hours of treatment
Protocol: as §1, §2

GRANTA = assay: WST-1 proliferation assay, GRANTA; type: cell-based; settings: WST-1, 48 hours of treatment
Protocol: as §1, §2

DND41 = assay: WST-1 proliferation assay, DND41; type: cell-based, human; settings: WST-1, 48 hours of treatment
Protocol: as §1, §2

[1] = previous study; cited from earlier work
[2] = tested on: 10 hematological cell-lines; assay: In vitro cytotoxicity screening on the panel of hematological cell-lines (WST-1); settings: for effect on proliferation rate across the examined cell-lines: 10 hematological cell-lines, WST-1; for cytotoxic effect compared to the parental non-conjugated drug: chimera vs its parent drug
Protocol: The above cells were cultured in RPMI medium (Gibco, Thermo Fisher Scientific Inc., USA). […] All media were supplemented with 10% heat-inactivated Fetal Bovine Serum (FBS, Biological industries, Israel), 2 mM glutamine (Biological industries, Israel) and 1% penicillin and streptomycin (Biological industries, Israel). Cells were cultured at 37° C. in a humidified incubator with 5% CO2.
Growth inhibition in hematological malignancies cell-lines was measured by tetrazolium WST-1 assay (Roche, Basel, Switzerland). Cells (1*10^4) were treated with various concentrations of the specific chimera or parental drug. After 48 h of incubation, 10 μl of WST-1 reagent was added to the plate and incubated for 1 h at 37° C., at which point the absorbance (450 nm) was measured in an ELISA plate reader (Synergy HTX multi-mode reader, Winooski, Vermont, USA).
MUTZ5 and MHH-CALL4; B-cell Acute lymphocytic leukemia (B-cell ALL) model. DND41; T-ALL model. KG-1a and OCI-AML-3; Acute myeloid leukemia (AML) model and HEL; erythroleukemia model.

[3] = tested on: aggressive papillary thyroid cancer cells; assay: Proliferation of aggressive papillary thyroid cancer cells; type: cell-based; settings: 10 nM and 100 nM, with respect to DMSO control
Protocol: Chimera 9 (also referred to herein as Doxorubizen) was evaluated in two different concentrations (10 nM and 100 nM) on aggressive papillary thyroid cancer and with respect to the parent anticancer drug Doxorubicin.

[4] = tested on: Human primary anaplastic thyroid cancer (ATC) cells; assay: Vitality/proliferation of primary anaplastic thyroid cancer cells; type: cell-based; settings: 100 nM, 250 nM, 500 nM; 3, 5 and 7 days
Protocol: Human primary anaplastic thyroid cancer (ATC) cells were treated with chimera 9 (100 nM, 250 nM, and 500 nM), or Doxorubicin (100 nM, 250 nM, and 500 nM), or with vehicle, for 3, 5, and 7 days.

[5] = tested on: triple negative breast cancer (TNBC) MDA 231 cells
Protocol: Five-week-old athymic Nude-Foxn 1nu male mice (ENVIGO Labs, Nes Ziona, Israel) were subcutaneously inoculated on the dorsal left side with […] (1×10^6 cell) into nu/nu mice, 0.2 mL per mouse) and tumors allowed to establish over time. When tumor volume reached 100 mm^3, Doxorubicin (Dox) and Doxorubizen (Chimera 9) were administered intraperitoneally (ip). Animals were removed from an experiment if either of the following conditions were fulfilled: reduction of 20% or more body weight; tumor volume>0.55 cm^3. The tumor dimensions were measured using a Vernier caliper and the volume was calculated according to the equation: Volume (mm^3) ¼ length×width×width×½ three times per week. The in vivo experiments were approved by the Animal Ethics Committee (Authorization number IL-179-06-19).
Chimera 9 was also evaluated for its effect on breast cancer model. For this evaluation, […] nude female (6-8 weeks) mice (groups 1, 2, two mice per group, groups 3, 4, 5 three mice per group) were inoculated with triple negative breast cancer (TNBC) MDA 231 cells. Group 1 was used as the control for tumor growth. After 10 days, mice were […] (ip) administered with Doxorubicin (groups 2 and 4) and Chimera 9 (Doxorubizen) (groups 3 and 5) in the following regime: ip administration of 2.5 mg/kg Doxorubicin once per week (group 2) and three sequential days per week (group 4); ip administration of 3.5 mg/kg chimera 9 once per week (group 3) and three sequential days per week (group 5). Overall experiment carried out for 5 weeks and 4 days, when the tumor volumes for all the groups were monitored. Tumors were then resected and measured.

COC(=O)N(C)/N=N/c1ccc(CNc2cccc3c2CN(C2CCC(=O)NC2=O)C3=O)cc1 (centres unmarked) [Chimera 2]
IC50 (MHH-CALL4): 24 µM | IC50 (Rec-1): 14.2 µM | IC50 (OCI-AML3): 17.1 µM | IC50 (MINO): 5.7 µM | IC50 (MUTZ5): 47.5 µM | IC50 (KG-1a): 46 µM | IC50 (JEKO-1): 22.8 µM | IC50 (HEL): 1.17 µM | IC50 (GRANTA): > 50 µM | IC50 (DND41): > 50 µM

COC(=O)N(C)/N=N/c1ccc(COc2cc(/C=C\c3cc(OC)c(OC)c(OC)c3)ccc2OC)cc1 [Chimera 4]
IC50 (MHH-CALL4): 21.6 µM | IC50 (Rec-1): 0.13 µM | IC50 (OCI-AML3): > 50 µM | IC50 (MINO): 0.69 µM | IC50 (MUTZ5): 39.8 µM | IC50 (KG-1a): 4.72 µM | IC50 (JEKO-1): 13.8 µM | IC50 (HEL): 1.63 µM | IC50 (GRANTA): 41.5 µM | IC50 (DND41): 27.6 µM

COC(=O)N(C)/N=N/c1ccc(COC(=O)Nc2cc3c4c(cccc4c2)C(=O)N(CCN(C)C)C3=O)cc1 [Amonafidazene]
biological parameters in vitro and in vivo compared with parent Amonafide [1]: superior in all biological parameters

CCc1c2c(nc3ccc(OCc4ccc(/N=N\N(C)C(=O)OC)cc4)cc13)-c1cc3c(c(=O)n1C2)COC(=O)[C@]3(O)CC [Chimera 1, (S,Z)-methyl3-(4-(((4,11-diethyl-4-hydroxy-3,14-dioxo-3,4,12,14-tetrahydro-1H pyrano [3′,4′:6,7]indolizino[1,2-b]quinolin-9-yl)oxy)methyl)phenyl)-1-methyltriaz-2-ene-1-carboxylate]
effect on proliferation rate across the examined cell-lines [2]: inhibited the proliferation rate in all the examined cell-lines | cytotoxic effect compared to the parental non-conjugated drug [2]: less than superior cytotoxic effect

COC(=O)N(C)/N=N/c1ccc(Cn2cc(F)c(=O)[nH]c2=O)cc1 [Chimera 5]
IC50 (MHH-CALL4): 32.4 µM | IC50 (Rec-1): 0.13 µM | IC50 (OCI-AML3): 22.7 µM | IC50 (MINO): 29.7 µM | IC50 (MUTZ5): 44.6 µM | IC50 (KG-1a): 27.7 µM | IC50 (JEKO-1): > 50 µM | IC50 (HEL): 2.72 µM | IC50 (GRANTA): > 50 µM | IC50 (DND41): 30.9 µM

COC(=O)N(C)/N=N/c1ccc(Cn2cc(F)c(=O)[nH]c2=O)cc1 [Chimera 5, (E)-methyl3-(4-((5-fluoro-2,4-dioxo-3,4-dihydropyrimidin-1(2H)-yl)methyl)phenyl)-1-methyltriaz-2-ene-1-carboxylate]
effect on proliferation rate across the examined cell-lines [2]: decreased the proliferation rate in at least 3 cell-lines

COc1cccc2c1C(=O)c1c(O)c3c(c(O)c1C2=O)C[C@@](O)(C(=O)CO)C[C@@H]3O[C@H]1C[C@H](N)[C@H](O)[C@H](C)O1 [Doxorubicin, reference compound]
proliferation of thyroid cancer cells [3]: no effect on cell proliferation | vitality/proliferation of primary human ATC cells [4]: reduced the vitality/proliferation of primary human ATC cells significantly | day of sacrifice due to large tumor volumes and severe animal conditions ([5]; Group 2: ip 2.5 mg/kg once per week): 12 days | day of death due to over toxication ([5]; Group 4: ip 2.5 mg/kg, three sequential days per week): 20 days

COC(=O)N(C)/N=N/c1ccc(CNc2cc3c4c(cccc4c2)C(=O)N(CCN(C)C)C3=O)cc1 [Chimera 8]
IC50 (MHH-CALL4): 36 µM | IC50 (Rec-1): > 50 µM | IC50 (OCI-AML3): 12.7 µM | IC50 (MINO): 13.3 µM | IC50 (MUTZ5): 10.3 µM | IC50 (KG-1a): 19.1 µM | IC50 (JEKO-1): 7.12 µM | IC50 (HEL): 1.97 µM | IC50 (GRANTA): > 50 µM | IC50 (DND41): 20.9 µM

COC(=O)N(C)/N=N/c1ccc(CNc2nc3ccc(OC(F)(F)F)cc3s2)cc1 [Chimera 7]
IC50 (MHH-CALL4): 5.25 µM | IC50 (Rec-1): 18 µM | IC50 (OCI-AML3): 14.2 µM | IC50 (MINO): 7.8 µM | IC50 (MUTZ5): 1.81 µM | IC50 (KG-1a): 23 µM | IC50 (JEKO-1): > 50 µM | IC50 (HEL): 2.37 µM | IC50 (GRANTA): 43 µM | IC50 (DND41): 2.37 µM

COC(=O)N(C)/N=N/c1ccc(CSc2ncnc3nc[nH]c23)cc1 [Chimera 6, (E)-methyl 3-(4-(((7H-purin-6-yl)thio)methyl)phenyl)-1-methyltriaz-2-ene-1-carboxylate]
effect on proliferation rate across the examined cell-lines [2]: decreased the proliferation rate in at least 3 cell-lines

COC(=O)N(C)/N=N/c1ccc(COc2c(OC)cc([C@@H]3c4cc5c(cc4[C@@H](OC4O[C@@H]6CO[C@@H](C)O[C@H]6[C@H](O)[C@H]4O)[C@H]4COC(=O)[C@H]34)OCO5)cc2OC)cc1 (some centres unmarked) [Chimera 3]
IC50 (MHH-CALL4): > 50 µM | IC50 (Rec-1): 23.7 µM | IC50 (OCI-AML3): 10.2 µM | IC50 (MINO): 30.3 µM | IC50 (MUTZ5): 34.8 µM | IC50 (KG-1a): > 50 µM | IC50 (JEKO-1): 28.6 µM | IC50 (HEL): 43.1 µM | IC50 (GRANTA): 42.1 µM | IC50 (DND41): > 50 µM | cytotoxic effect compared to the parental non-conjugated drug [2]: did not show prevalence over Etoposide

COC(=O)N(C)/N=N/c1ccc(CSc2ncnc3nc[nH]c23)cc1 [Chimera 6]
IC50 (MHH-CALL4): 16.6 µM | IC50 (Rec-1): 20.5 µM | IC50 (OCI-AML3): 8.76 µM | IC50 (MINO): 6.88 µM | IC50 (MUTZ5): 31 µM | IC50 (KG-1a): 39.2 µM | IC50 (JEKO-1): 39.5 µM | IC50 (HEL): 13.5 µM | IC50 (GRANTA): > 50 µM | IC50 (DND41): > 50 µM

CCc1c2c(nc3ccc(OCc4ccc(N=NN(C)C(=O)OC)cc4)cc13)-c1cc3c(c(=O)n1C2)COC(=O)C3(O)CC (centres unmarked) [Chimera 1]
IC50 (MHH-CALL4): 1.2 µM | IC50 (Rec-1): 0.59 µM | IC50 (OCI-AML3): 12.3 µM | IC50 (MINO): 0.63 µM | IC50 (MUTZ5): 3.02 µM | IC50 (KG-1a): 1.04 µM | IC50 (JEKO-1): 0.36 µM | IC50 (HEL): 0.55 µM | IC50 (GRANTA): 8.42 µM | IC50 (DND41): 1.99 µM

COC(=O)N(C)/N=N/c1ccc(CNc2nc3ccc(OC(F)(F)F)cc3s2)cc1 [Chimera 7, (E)-methyl1-methyl-3-(4-(((6-(trifluoromethoxy)benzo [d]thiazol2yl)amino)methyl)phenyl) triaz-2-ene-1-carboxylate]
effect on proliferation rate across the examined cell-lines [2]: decreased the proliferation rate in at least 3 cell-lines | cytotoxic effect compared to the parental non-conjugated drug [2]: reduced proliferation rate of numerous cell-lines

COC(=O)N(C)/N=N/c1ccc(COc2cc(/C=C\c3cc(OC)c(OC)c(OC)c3)ccc2OC)cc1 [Chimera 4, (E)-methyl3-(4-((2-methoxy-5-((Z)-3,4,5-trimethoxystyryl)phenoxy)methyl)phenyl)-1-methyltriaz-2-ene-1-carboxylate]
effect on proliferation rate across the examined cell-lines [2]: decreased the proliferation rate in at least 3 cell-lines | cytotoxic effect compared to the parental non-conjugated drug [2]: less than superior cytotoxic effect

COC(=O)N(C)/N=N/c1ccc(CNc2cccc3c2CN(C2CCC(=O)NC2=O)C3=O)cc1 (centres unmarked) [Chimera 2, (E)-methyl 3-(4-(((2-(2,6-dioxopiperidin-3-yl)-1-oxoisoindolin-4-yl)amino)methyl)phenyl)-1-methyltriaz-2-ene-1-carboxylate]
effect on proliferation rate across the examined cell-lines [2]: decreased the proliferation rate in at least 3 cell-lines
